Laboratory results as given in PubChem BioAssay AID256 (DTP/NCI, 2004).
Where “and” joins values, the source holds several entries; their conditions need not be identical. Identical values can stand only once. Toxic doses and inconclusive results are not listed. How the source made its calls: active means survival T/C of 150% or more; inactive means T/C below 125% in these data.

System: CD2F1 mice, L1210 leukemia ip, survival T/C
Experiment: NCI In Vivo Anticancer Drug Screen. Data for tumor model L1210 Leukemia (intraperitoneal) in CD2F1 (CDF1) mice
Conditions: endpoint: mean survival time, higher = longer survival
Outline: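 In this screen, transplantable tumors were grown in mice given either the compound or its vehicle. Results were expressed as the treated measurement relative to the control measurement.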

[1] = dose: 100.0 mg/kg/injection, schedule: Q04DX002 (ip), vehicle: saline with Tween-80
[2] = dose: 200.0 mg/kg/injection, schedule: Q04DX002 (ip), vehicle: saline with Tween-80
[3] = dose: 400.0 mg/kg/injection, schedule: Q04DX002 (ip), vehicle: saline with Tween-80
[4] = dose: 100.0 mg/kg/injection, schedule: Q04DX003 (ip), vehicle: saline with Tween-80
[5] = dose: 200.0 mg/kg/injection, schedule: Q04DX003 (ip), vehicle: saline with Tween-80
[6] = dose: 400.0 mg/kg/injection, schedule: Q04DX003 (ip), vehicle: saline with Tween-80
[7] = dose: 100.0 mg/kg/injection, schedule: Q01DX009 (ip), vehicle: saline with Tween-80
[8] = dose: 200.0 mg/kg/injection, schedule: Q01DX009 (ip), vehicle: saline with Tween-80
[9] = dose: 400.0 mg/kg/injection, schedule: Q01DX009 (ip), vehicle: saline with Tween-80
[10] = dose: 50.0 mg/kg/injection, schedule: Q01DX009 (ip), vehicle: saline with Tween-80
[11] = dose: 100.0 mg/kg/injection, schedule: Q01DX001 (ip), vehicle: saline with Tween-80
[12] = dose: 200.0 mg/kg/injection, schedule: Q01DX001 (ip), vehicle: saline with Tween-80
[13] = dose: 400.0 mg/kg/injection, schedule: Q01DX001 (ip), vehicle: saline with Tween-80
[14] = dose: 75.0 mg/kg/injection, schedule: Q01DX001 (ip), vehicle: saline
[15] = dose: 150.0 mg/kg/injection, schedule: Q01DX001 (ip), vehicle: saline
[16] = dose: 300.0 mg/kg/injection, schedule: Q01DX001 (ip), vehicle: saline

Measured: T/C

CNOCc1ccc(C(=O)NC(C)C)cc1
inactive: dose: 25.0 mg/kg/injection, schedule: Q01DX009 (ip), vehicle: other 98 % of control | dose: 50.0 mg/kg/injection, schedule: Q01DX009 (ip), vehicle: other 100 % of control | dose: 100.0 mg/kg/injection, schedule: Q01DX009 (ip), vehicle: other 98 % of control | dose: 200.0 mg/kg/injection, schedule: Q01DX009 (ip), vehicle: other 100 % of control | dose: 400.0 mg/kg/injection, schedule: Q01DX009 (ip), vehicle: other 118 % of control

O=C(CC(=O)c1ccc(Cl)cc1)Cc1ccc2ccccc2n1
inactive: [1] 97 % of control | [2] 97 % of control | [3] 97 % of control

O=C(O)c1c(Cl)c(Cl)c(C(=O)O)c(Cl)c1Cl
inactive: [4] 96 % of control | [5] 96 % of control | [6] 94 % of control

CCCCCCCCCCCCC(=O)OC
inactive: [7] 107 % of control | [8] 106 % of control | [9] 105 % of control

N#CC(Cl)(C#N)c1ccc(C(Cl)(C#N)C#N)cc1
inactive: dose: 25.0 mg/kg/injection, schedule: Q01DX009 (ip), vehicle: saline with Tween-80 101 % of control | [10] 104 % of control | [7] 98 % of control and 101 % of control

C[N+](C)(C)Cc1ccccc1/C(=N\O)c1ccccc1
inactive: dose: 5.0 mg/kg/injection, schedule: Q01DX009 (ip), vehicle: saline 109 % of control | dose: 5.0 mg/kg/injection, schedule: Q04DX003 (ip), vehicle: saline 116 % of control | dose: 10.0 mg/kg/injection, schedule: Q01DX009 (ip), vehicle: saline 100 % of control | dose: 10.0 mg/kg/injection, schedule: Q04DX003 (ip), vehicle: saline 98 % of control | dose: 20.0 mg/kg/injection, schedule: Q01DX009 (ip), vehicle: saline 91 % of control | dose: 20.0 mg/kg/injection, schedule: Q04DX003 (ip), vehicle: saline 89 % of control

Cc1ccc(-n2c(O)c(N=Nc3ccccc3)c(=O)n(-c3ccc(C)cc3)c2=S)cc1
inactive: [11] 95 % of control | [12] 100 % of control | [13] 97 % of control

O=C1c2ccccc2C(=O)N1CCO
inactive: [4] 106 % of control | [5] 108 % of control | [6] 110 % of control

Clc1ccc([PH+](c2ccc(Cl)cc2)c2ccc(Cl)cc2)cc1.Clc1ccc([PH+](c2ccc(Cl)cc2)c2ccc(Cl)cc2)cc1.[Cl][Hg][Cl]
inactive: dose: 12.5 mg/kg/injection, schedule: Q01DX009 (ip), vehicle: Klucel (hydroxypropylcellulose) (HPC) 96 % of control | dose: 50.0 mg/kg/injection, schedule: Q01DX009 (ip), vehicle: Klucel (hydroxypropylcellulose) (HPC) 104 % of control

COC/C(=N/Nc1ccc([N+](=O)[O-])cc1[N+](=O)[O-])c1ccccc1
inactive: [4] 102 % of control | [5] 108 % of control | [6] 100 % of control

COc1cc2c(cc1O)CCCC=C2
inactive: [10] 100 % of control | [7] 96 % of control | [8] 92 % of control

CN1C2CCC1CC(OC(=O)/C=C/C(=O)OC1CC3CCC(C1)N3C)C2 (configuration not stated)
inactive: [14] 94 % of control | [15] 106 % of control | [16] 94 % of control

Nc1ncnc2c1c(-c1nnc3c(n1)-c1ccccc1C3=O)cn2C1OC(CO)C(O)C1O (configuration not stated)
inactive: dose: 100.0 mg/kg/injection, schedule: Q01DX005 (ip), vehicle: saline 100 % of control | dose: 200.0 mg/kg/injection, schedule: Q01DX005 (ip), vehicle: saline 100 % of control

CN(C)c1ccc(/C=N/NC(=O)CNC(=O)Nc2cccc(C(F)(F)F)c2)cc1
inactive: [10] 96 % of control | [7] 92 % of control | [8] 88 % of control

Cc1[nH]c2cc([N+](=O)[O-])ccc2c1[N+](=O)[O-]
inactive: [14] 97 % of control and 108 % of control | [15] 103 % of control and 100 % of control | [16] 93 % of control

Nc1ccn(C2CC(O)C(CO)C2)c(=O)n1 (configuration not stated)
inactive: dose: 100.0 mg/kg/injection, schedule: Q01DX001 (ip), vehicle: saline 100 % of control | dose: 200.0 mg/kg/injection, schedule: Q01DX001 (ip), vehicle: saline 105 % of control | dose: 400.0 mg/kg/injection, schedule: Q01DX001 (ip), vehicle: saline 97 % of control

COC(=O)c1ccc(I)c([N+](=O)[O-])c1
inactive: [11] 98 % of control | [7] 102 % of control | [12] 104 % of control | [8] 102 % of control | [13] 97 % of control | [9] 103 % of control

O=C(O)CC1(O)CCCCC1c1ccccc1 (configuration not stated)
inactive: [4] 104 % of control | [5] 105 % of control | [6] 88 % of control

CCC1(C)C(=O)c2ccccc2N(C)C1=O (configuration not stated)
inactive: [11] 95 % of control | [7] 93 % of control | [1] 103 % of control and 106 % of control | [4] 97 % of control | [12] 100 % of control | [8] 93 % of control and 102 % of control | [2] 104 % of control and 110 % of control | [5] 100 % of control | [13] 95 % of control | [9] 101 % of control and 102 % of control | [3] 109 % of control and 110 % of control | [6] 100 % of control
